In one data set the target is T1, RIPK1 (Homo sapiens, UniProt Q13546).
T1 sequence (Q13546 1-671): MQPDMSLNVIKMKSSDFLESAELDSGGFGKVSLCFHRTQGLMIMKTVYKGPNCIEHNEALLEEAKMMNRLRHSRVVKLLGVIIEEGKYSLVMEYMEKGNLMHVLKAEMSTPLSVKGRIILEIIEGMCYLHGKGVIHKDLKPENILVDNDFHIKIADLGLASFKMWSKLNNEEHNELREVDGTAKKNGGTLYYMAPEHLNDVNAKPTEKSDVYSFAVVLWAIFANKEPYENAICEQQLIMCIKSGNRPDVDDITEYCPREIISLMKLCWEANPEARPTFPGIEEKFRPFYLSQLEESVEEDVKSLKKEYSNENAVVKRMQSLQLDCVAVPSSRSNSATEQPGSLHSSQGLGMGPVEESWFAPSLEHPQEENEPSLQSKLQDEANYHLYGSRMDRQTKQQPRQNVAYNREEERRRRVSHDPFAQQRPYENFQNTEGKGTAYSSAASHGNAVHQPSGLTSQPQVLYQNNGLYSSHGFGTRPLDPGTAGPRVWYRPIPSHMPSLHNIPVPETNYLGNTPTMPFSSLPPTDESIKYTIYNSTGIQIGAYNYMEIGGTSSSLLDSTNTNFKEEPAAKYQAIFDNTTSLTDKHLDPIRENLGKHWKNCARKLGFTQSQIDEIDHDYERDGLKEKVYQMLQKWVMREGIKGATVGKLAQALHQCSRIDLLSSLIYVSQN
As to the kind of experiment: RIPK1 activity inhibition test (NANOSYN). Type of data set: biochemical. The note with it: 12 concentrations, threefold dilution, 1% DMSO. As for the experimental part: The test compounds were dissolved in DMSO, with the highest concentration being […]. Subsequently, the concentrations were serially diluted threefold, with the DMSO concentration in the test medium maintained at 1%. IC50 values were calculated from data generated prom 12 tested concentrations.

The next data set relates to Jurkat FADD (−/−) Cells. As to the kind of experiment: TNF-α induced necroptosis of Jurkat FADD-deficient cells (CellTiter-Glo cell survival). It is filed as cell-based, human. To be noted: Homo sapiens; TNF-α induced necroptosis, Jurkat FADD-deficient cells, 13 hours, CellTiter-Glo; read-out: IC50. The method in brief: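 Cells in RPMI 1640 with 10% FBS were pretreated for 1 h at 37 °C with compound (12-point threefold series from 25 μM, or 0.5 μM, in triplicate). They were then stimulated with TNFα added as a 5 ng/mL solution for 13 h. Survival was read by luminescence.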

The nature of data set [1]: Study of oral pharmacokinetics in rats. The note with it: rat, in vivo, male SD rats, p.o.; for bioavailability: i.v. 1 mg/kg; for AUC(0-t): read-out: AUC0-8. As for the experimental part: Healthy male SD rats were used as experimental animals. The intragastric (p.o.) administration was performed, with a dosage of 5 mg/kg or 15 mg/kg. Preparation: the compound was dissolved in a formulation made of 1% tween 80, 1% HMPC, and 98% water. The mixture was ground and shaken until the compound was uniformly distributed with a small particle size, and then 1 equivalent of methanesulfonic acid was added. The intravenous administration was performed with a dosage of 1 mg/kg. Preparation: 5% DMSO, 10% EtOH, 10% sulotol, and 75% physiological saline was added to the compound, and mixed well. Samples were taken at 5 minutes, 15 minutes, 30 minutes, 1 hour, 2 hours, 4 hours, 6 hours, and 8 hours after administration, and then the samples were analyzed using liquid chromatography tandem mass spectrometry (LC-MS/MS).

Molecules are shown by their SMILES. Where two headings read alike, the source gives them in different places.

As to `CN1C(=O)C(NC(=O)c2nnc(Cc3ccccc3)[nH]2)Cc2cn(-c3cnn(C)c3)c3cccc1c23` (racemic) [T-34, (±)-5-benzyl-N-(1-methyl-6-(1-methyl-1H-pyrazol-4-yl)-2-oxo-2,3,4,6-tetrahydro-1H-azacyclo [4,3,2-cd]indol-3-yl)-4H-1,2,4-triazole-3-carboxamide], the IC50 against RIPK1 was 50.4 nM; with Jurkat FADD (−/−) Cells, less than 10 nM.
Turning to `CN1C(=O)C(NC(=O)c2nnc(Cc3ccccc3)[nH]2)Cn2cc(-c3ccnn3C)c3cccc1c32` (racemic) [T-16, (±)-5-benzyl-N-(1-methyl-7-(1-methyl-1H-pyrazol-5-yl)-2-oxy-1,2,3,4-tetrahydro-[1,4]diazepino [3,2,1-hi]indol-3-yl)-4H-1,2,4-triazole-3-carboxamide], the IC50 against RIPK1 was 47.8 nM; in the data set on Jurkat FADD (−/−) Cells, less than 10 nM.
On to `CN1C(=O)[C@@H](NC(=O)c2nnc(Cc3ccccc3)[nH]2)Cc2cn(-c3ncccc3OC(F)F)c3cccc1c23` [T-112, (S)-5-benzyl-N-(6-(3-(difluoromethoxy)pyridin-2-yl)-1-methyl-2-oxo-2,3,4,6-tetrahydro-1H-aza [4,3,2-cd]indol-3-yl)-4H-1,2,4-triazole-3-carboxamide], for which 28.3 nM corresponded to half-maximal inhibition on RIPK1 (IC50). In data set [1] (5 mg/kg), the Cmax was 494 ng/mL, the Tmax was 0.75 h, the half-life was 1.99 h and the bioavailability was determined as 18.3%. For the same compound, the AUC(0-t) in data set [1] (5 mg/kg) was 1700 ng·h/mL. Further, in data set [1] (15 mg/kg), the peak level (Cmax) was 3930 ng/mL, the Tmax came to 1.5 h, the half-life was 1.91 h and the bioavailability was 57.1%. For the same compound, the AUC(0-t) in data set [1] (15 mg/kg) turned out to be 15900 ng·h/mL. For the same compound, the IC50 with Jurkat FADD (−/−) Cells is less than 10 nM.
On to `CN1C(=O)[C@@H](NC(=O)c2nnc(Cc3ccccc3)[nH]2)Cc2cn(-c3ncccc3C(F)(F)F)c3cccc1c23` [T-96, (S)-5-benzyl-N-(1-methyl-2-oxo-6-(3-(trifluoromethyl)pyridin-2-yl)-2,3,4,6-tetrahydro-1H-azacyclo [4,3,2-cd]indol-3-yl)-4H-1,2,4-triazole-3-carboxamide], for which inhibition at RIPK1 was half-maximal at 15.2 nM (IC50). Further, in data set [1] (5 mg/kg), the Cmax was found to be 1270 ng/mL, the Tmax came out at 1 h, the half-life was 3.76 h and the bioavailability was 28.2%. Besides, the AUC(0-t) in data set [1] (5 mg/kg) turned out to be 4900 ng·h/mL. The half-inhibitory concentration (IC50) in the data set on Jurkat FADD (−/−) Cells was less than 10 nM.
